Measurements published in US4892826A, “Process for the preparation of urokinase derivatives” (Abbott Laboratories, priority 1988, dated 1990).
Each block holds one molecule with its values, some of them ahead of it.

Key:
[1] = Urokinase amidolytic activity assay with chromogenic substrate S-2444; type: biochemical; conditions: isolated derivative
Method: The reduction of the three disulfide bridges can be monitored, for example, by assays of the amidolytic activity of the urokinase, by titration of the available SH groups, or by reverse phase chromatography of the reduced urokinase. Preferably, the reduction is monitored by assaying the gain or loss of amidolytic activity of the urokinase.
Approximately 1 to 2 mg/ml of the UK23 solution, in 0.1M phosphate (pH 7), was diluted with 1 volume of 0.5M arginine in water (pH 7). The reducing agent DTT, from a fresh stock solution of 1M in water, was added to adjust the final DTT concentration to 10 mM. […] The absorbance increase at 406 nm was monitored over a five minute period. One enzyme unit was defined as an increase in absorbance at 406 nm of 1 unit per minute.

urokinase = urokinase (Homo sapiens, UniProt P00749); assay: biochemical
Description: The optimal concentration of arginine can be approximated by its apparent Ki value for inhibition of urokinase as calculated from a Dixon plot. Dixon, M, Biochem. J., 55, 170-171 (1953). […] It is preferred that the concentration of arginine chosen will maximally saturate the urokinase molecule and confer a protective effect against the previously discussed over reduction of the disulfide bridges.

- active (amidolytic activity of resulting derivative) [1]: 100%
Molecule: Heparin-LKFQCGQK Urokinase Derivative [Example 4]

Molecule: N=C(N)NCCC[C@H](N)C(=O)O [arginine]
- Ki (urokinase): 70 mM

Molecule: GPRP-Amino hexanoic acid-LKFQCGQK Urokinase Derivative [Example 1]
- amidolytic activity, % of the initial UK23 value ([1]; repeated procedures): 80% to 100
